Test results published in patent US20190008810A1, “METHOD FOR PREVENTION, TREATMENT AND ALLEVIATION OF INFECTIOUS DISEASES AND DISORDERS” (REPLICON HEALTH OY, priority 2016, published 2019).

Tests used:
[1] = tested on: bacterial and/or virus infection of respiratory tract; assay: Healing from more severe respiratory tract infection in S1, Example 1d; format: in vivo, human
Source text: Clear symptoms of bacterial and/or virus infection in S1 had started 7 days earlier. Original cause of the disease can also be acquired earlier, i.e. it can have been some hiding pathogen like tuberculosis bacteria that exploits tempting opportunities to attack the body when its defenses are weakened by some physical and/or mental stress (in this case stress could have been also positive stress from overly active days). […] On Friday, they were in an activity theme park with the family and next day, on Saturday they drove for 2 hours to a birthday party lasting to Sunday morning hours, and finally on Sunday visited museum that required 500 km of extra driving there and back. Next day, i.e. on Monday morning, the initiation of infectious condition was felt very clearly.
On Friday afternoon, fever had risen to 37.40 Celsius that is relatively high fever for S1 whose normal temperature is 36.60 Celsius (C) in rest during the day. Fever remained at 37.40 C until the night. During Saturday, the disease and related fever continued. On Sunday morning, temperature was slightly elevated (36.58 C) compared to the normal morning temperature (36.2-36.4 C). Otherwise the general condition was good on this Sunday morning but during the day fever again rose to 37.15 C by the afternoon and the symptoms in respiratory tract got more severe, resembling intensifying bronchitis or similar inflammatory condition.
By Sunday afternoon it started to seem evident that the immune system of S1 (even assisted by almost perfect rest for 3 days already) would not be able to provide a fast resolution to the potentially serious infectious condition. The Double and the Local Enforcements should be started as soon as possible. (Note: acute fever responses, presented in FIG. 5 and FIG. 11 for S1 have been observed from following administrations of D-glyceric acid in water and calcium salt dehydrate.)
At 12:41 S1 took 2×250 mg of D-glyceric acid calcium salt mixed into water to initiate the DGA Activation. At 0715 pm S1 took 2×180 mg of D-glyceric acid calcium salt mixed into water to keep the DGA Activation alive.

[2] = tested on: HO-1, CYP2B6, PGC-1a; assay: Gene expression in primary human hepatocytes after 48 h+2 h; format: cell-based
Description: FIG. 13b: Gene Expression results from Primary Hepatocytes after 48 h+2 h of the DGA Activation vs. 0-control. […] Combined test for PGC-1a yielded P-value of some 10%. Primary human hepatocytes were purchased from Celsis In Vitro Technologies (1450 South Rolling Road Baltimore, Md. 21227, USA). Primary hepatocytes were received from three different post mortem human donators. […] This is also the case for DOO.
In this experimental model the cells in the 0-Control and in the two DGA Activation groups were normally and identically incubated before DGA Activation. Incubation the medium is changed every 24 hours. When the 48 hour+2 hour DGA Activation started, the only difference was the addition of either 1.4 μM or 14 μM of DGA to the used medium. The D-glyceric acid calcium salt was carefully mixed in to medium before the administration. Thus, it was separated from the calcium salt.

[3] = tested on: intraocular pressure; assay: Intraocular pressure (IOP) in glaucoma, S1; format: in vivo, human
Source text: FIG. 12: Numerical values of the reduction in IOP in Glaucoma after DGA Administration.
The same seems to be true for the efficacy of glaucoma therapy in FIG. 12.

[4] = tested on: ethanol-dosed gastric cells; settings: in vitro study, Habe et al.; cited from earlier work
[5] = tested on: acute bowels inflammation caused by diverticulitis; assay: Healing from acute inflammatory bowels disease (diverticulitis) in S4, Example 1e; format: in vivo, human
Source text: In Example 1e the resolution of gastrointestinal tract infection in another subject 4 (S4) has been shown. Like in S1 also in S4 the HO-1 pathway is clearly activated by the DGA Activation. This is indirectly shown by the clear reduction of blood bilirubin in Table 1e. […] During last few years these seldom but acute inflammations in the gastrointestinal tract have been mostly in the colon and caused by inflammation in Colonic diverticula. […] The only functioning therapy for inflammatory bowels disease has been the administration of strong intravenous antibiotics.
Like other tests with unhealthy humans also this test was done because there were no other efficient substances available. When symptoms of increased bowels inflammation/diverticulosis started S4 was on holiday abroad with very difficult access to any specialized doctor not to mention any hospital. […] Simultaneously with inflammatory symptoms and maybe partially enhancing them S4 experienced constipation.
By Saturday night on the 4th day of gradually increasing acute inflammation in the colon, S4 decided to test whether DGA Activation in combination with paracetamol would assist in resolving this already rather serious inflammation. There were no other available options at that moment. This decision was also supported by confidential information received on positive results with S1 (Examples 1b and 1c).
Saturday night at 0737 pm first 260 mg of D-glyceric acid calcium salt mixed into water was taken with 2×500 mg of paracetamol. Another additional 260 mg dose of DGAcs mixed into water was taken the same night at 1020 pm. Altogether the starting dose was 9 mg/kg i.e. relatively high. High initial dose was chosen because of high level of inflammation.

[6] = tested on: rat primary optic nerve astrocytes; assay: ROS generation (CellROX Green) in rat primary optic nerve astrocytes, Example 2; format: cell-based; settings: 14 μM
Description: For proving the efficacy of DGA Activation in reducing ROS in infectious disorders an in vitro study using rat primary optic nerve astrocytes has been conducted. […] As an important part of the study the cell viability was estimated 6 hours after tBHP administration by two methods, i.e. LDH and MTT assays. Cell viability was measured using the in-house MTT assay (of Experimentica Ltd., Finland) and CytoTox96 non-radioactive cytotoxicity assay (G1780, Promega) in response to oxidative stress primary optic nerve astrocytes. The production of reactive oxygen species (ROS) was measured using CellROX Green (Invitrogen) and isolate RNA in RNALater solution (Ambion). Primary optical nerve astrocytes where obtained from 4-week-old male Wister rats (6 animals' altogether) and where cultured to obtain sufficient amount of cells for the experiment. In the experiment cells where plated at 5000 cells per well and allowed to adhere for 24 hrs prior to the administration of compounds for 48 hrs (replenished every 24 hrs). After 24 hrs the compounds were removed, and readded with new medium for 1 hr, prior to the administration of 85 μM tBHP (FIG. 3c). MTT and LDH assay were performed after 6 hrs and ROS detection using CellROX green was performed over a time course of 4 hrs. D-glyceric acid was mixed into the medium in beforehand in soluble calcium salt format (DGAcs). After mixing the calcium is liberated to the medium from the D-glyceric acid. D-glycerate is formed.

[7] = 1.4 μM, combined data, P-value approximately 1%

Structure (SMILES): O=C(O)[C@H](O)CO [DGA, D-glyceric acid]
- body temperature, highest during workday ([1]; S1, Monday): 36.87 C
- body temperature ([1]; S1, Monday 0630 am): 36.38 C
- body temperature ([1]; S1, Monday 0900 pm): 36.71 C
- body temperature ([1]; S1, Monday 1036 pm): 36.68 C
- body temperature ([1]; S1, Sunday 07:10 pm, before second dose): 36.60 C
- body temperature ([1]; S1, Sunday 0648 pm after 2×250 mg at 12:41, 37.15 C before): 36.58 C
- body temperature ([1]; S1, Sunday 0652 pm): 36.52 C
- body temperature ([1]; S1, Sunday 1015 pm): 36.60 C
- body temperature ([1]; S1, Sunday 1035 pm): 36.61 C
- CYP2B6 expression vs control [2, 7]: statistically significantly different from control
- HO-1 expression vs control [2, 7]: statistically significantly different from control
- PGC-1a expression vs control ([2]; combined test P-value of some 10%): activated compared to control
- increase of HO-1 expression ([2]; primary human hepatocytes in vitro): 50-80%
- IOP reduction, sufficiency of acute dose ([3]; acute dose 1*200 mg): not necessarily sufficient
- IOP compared to relevant control measurement ([3]; first measurement under the full DGA Activation): very significant reduction in IOP
- viability of ethanol-dosed gastric cells [4]: can increase viability of ethanol-dosed gastric cells
- time needed to turn the inflammatory process clearly down ([5]; S4): ~36 h
- defecation ([5]; S4, Sunday 0910 am, morning after 2×260 mg DGAcs with 2×500 mg paracetamol): could defecate (almost normally) for the first time in 3 days
- pains in bowels ([5]; S4, Wednesday morning, after 240 mg twice a day): All the pains in bowels had disappeared
- ROS generation vs 0-controls ([6]; 0 tBHP (healthy conditions)): lower
- increase of average ROS generation in 15 minutes, tBHP group compared to without tBHP ([6]; 85 μM tBHP, 0 min to 15 min, control approximately 20%): approximately 30%
- ROS level vs control groups ([6]; 15, 30 and 60 minutes after bolus 85 μM tBHP): statistically significantly lower
